Source: patent US12385839B2, “Use of protein in predicting drug properties” (priority 2021, dated 2025)
pKd: −log10 of the molar value. “And” between values parts separate entries of the source, which are not always exact repeats. Identical values can stand only once. Like-named read-outs stand apart in the source and are kept apart here.

Key:
[1] = target: T1, human serum albumin (HSA) (Homo sapiens, UniProt P02768); test: Fluorescence emission spectrum (quenching) of HSA with carbamate pesticides; assay type: binding; settings: for Ka (binding constant) / Kq / Ksv / n (number of binding sites) / pKd: pH 7.4; for R (binding distance): Förster energy transfer; for fluorescence of HSA quenched by pesticide: titration of pesticide; for ΔH^0 / ΔS^0: Van't Hoff, 296-310 K
T1 sequence (P02768 25-609): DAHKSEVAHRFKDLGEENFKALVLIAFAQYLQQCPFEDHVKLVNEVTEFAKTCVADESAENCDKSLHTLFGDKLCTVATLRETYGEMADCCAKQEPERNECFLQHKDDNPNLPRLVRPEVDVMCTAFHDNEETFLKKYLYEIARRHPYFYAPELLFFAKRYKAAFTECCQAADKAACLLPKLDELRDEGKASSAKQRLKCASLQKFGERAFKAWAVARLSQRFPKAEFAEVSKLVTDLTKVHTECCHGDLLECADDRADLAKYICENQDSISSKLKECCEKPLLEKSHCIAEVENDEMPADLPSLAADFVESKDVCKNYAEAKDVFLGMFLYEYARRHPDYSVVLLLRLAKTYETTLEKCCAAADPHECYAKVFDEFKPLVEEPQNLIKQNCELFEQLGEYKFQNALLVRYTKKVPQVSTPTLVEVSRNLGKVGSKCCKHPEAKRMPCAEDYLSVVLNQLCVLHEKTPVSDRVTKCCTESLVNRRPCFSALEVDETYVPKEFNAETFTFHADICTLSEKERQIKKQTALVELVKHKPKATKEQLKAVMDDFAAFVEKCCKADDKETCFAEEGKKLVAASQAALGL
Description: the mixed solution to be tested was preheated at […] for 3 minutes, and the emission spectrum of HSA with carbamate pesticides was measured at 300-500 nm . The excitation wavelength was set at 280 nm , and the slit width for both excitation and emission was 15 nm; the HSA concentration was kept constant at 5×10^−7 M, and the pesticide concentration was (0-105)×10^−7 M.
The internal filtering effect of fluorescence signal was corrected according to the following formula: Fcor=Fobsexp[(Aex+Aem)/2] (1);
in this formula, Fcor and Fobs represent corrected fluorescence signal and observed fluorescence signal, respectively, and Aex and Aem represent absorbance of the mixed solution to be tested at excitation wavelength and emission wavelengths, respectively; the quenching constant, number of binding sites, binding constant, free energy and binding distance of different drugs were obtained by fluorescence emission spectra, and a BP neural network model was obtained. Specifically, they were obtained as follows:
There is a linear relationship between F0/F and [Q] to distinguish whether it is static quenching or dynamic quenching. The fluorescence quenching data are analyzed by Stern-Volmer equation to clarify the quenching mechanism: F0/F=1+KSV[Q]=1+Kqτ0[Q] (2);
in the formula, F0 and F are fluorescence signals […] quencher, respectively. Ksv is Stern-Volmer quenching constant; Kq is a quenching rate constant of biomolecules; τ0 is the average lifetime of biomolecules without quencher (about 10^−8 s); [Q] is the concentration of quencher.
The maximum dynamic quenching rate constant of all kinds of quenchers on polymers was 2.0×10^10 L·mol^−1·s^−1. Static quenching and dynamic quenching could be judged according to this value. If K^q was greater than 2.0×10^10 L·mol^−1·s^−1, it belonged to static quenching. Otherwise, it belonged to dynamic quenching.
In this part, the binding sites and binding constants between carbamate pesticides and HSA were calculated. The following formula was used to calculate the number of binding sites (n) and the binding constant (Ka) of carbamate pesticides and HSA: log[(F0−F)/F]=log Ka+nlog[Q] (3);
The interactions between biological molecules and drug molecules were weak intermolecular interactions, including hydrogen bonds, van der Waals forces, electrostatic forces and hydrophobic interactions. By using Van't Hoff equation, the thermodynamic constants of drug-protein interaction were obtained, and the main types of drug-protein interaction were judged according to the changes of binding constants under different conditions. LnK=−ΔH^0/RT+ΔS^0/R (4); ΔG^0=ΔH^0−TΔS^0 (5);
There is a relationship among energy transfer efficiency E, distance r between energy donor and energy receptor and energy transfer distance R0. E=1−F/F0=R0^6/(R0^6+r^6) (6);
E represents the transfer efficiency between donor and receptor, r is the average distance between donor and receptor, and R0 is the critical distance when the transfer efficiency is 50%. R0^6=8.79×10^−K^2N^−4φJ (7)
K^2 is the orientation related to the geometry of donor and receptor of dipole. For random orientation in fluid, K^2=2/3; N is the average refractive index of the medium in the wavelength range with obvious spectral overlap, and the refractive index of water and organic matter is 1.336; φ is the quantum yield of donor, and the quantum yield of tryptophan in HSA is about 0.118; J represents the influence of spectral overlap between the emission spectrum of the donor and the absorption spectrum of the receptor, and can be calculated by the following formula: j=ΣF(λ)ϵ(λ)λ^4Δλ/ΣF(λ) Δλ (8);
F(λ) is the corrected fluorescence signal of the donor in the wavelength range from λ to (λ+Δλ), while ϵ(λ) is the extinction coefficient of the receptor at λ.

[2] = target: T1, human serum albumin (HSA); test: Circular dichroism spectrum, secondary structure (α-helix content) of HSA; settings: HSA 2×10^−6 M
Description: the mixed solution to be tested was preheated at […] for 2-5 minutes, and the CD spectrum of HSA was recorded in the wavelength range of 200-500 nm . The concentration of HSA was kept at 2×10^−6 M, and the pesticide was (0-20)×10^−6 m. Firstly, HSA was measured, and then the ratio of HSA to pesticides needed to be determined specifically, which was preliminarily determined according to the ratio of 1:1, 1:2 and 1:3.
According to the following equation, the result of CD spectrum was usually expressed as the mean residue ellipticity (MRE), and the unit was deg·cm^2·dmol^−1. MRE=ObservedCD(mdeg)/(10Cpnl) (9);
in which Cp is the molar concentration of protein, n is the number (585) of amino acid residues, and 1 is the path length (1 mm). The α helicity of free and bound HSA is calculated from MRE values using the following formula: α−Helix(%)=[(−MRE208−4000)×100]/(33000-4000) (10)
in which the MRE208 is the MRE value observed at 208 nm , 4000 is the MRE value of random coil conformation at 208 nm , and […] is the MRE value of pure α helix at 208 nm .

[3] = cited from earlier work; for Toxicity: toxicity grade by LD50, trailing figure = number of pesticides in group; for LD50: modelling table

Molecule | Ksv (37°) ([1]; 37°, modelling table) | ΔG^0 ([1]; 296 K) | Kq ([1]; 296 K) | Ksv ([1]; 296 K) | n (number of binding sites) ([1]; 296 K) | ΔG^0 ([1]; 303 K) | Kq ([1]; 303 K) | Ksv ([1]; 303 K) | n (number of binding sites) ([1]; 303 K) | ΔG^0 ([1]; 310 K) | R (binding distance) ([1]; 310 K) | Kq ([1]; 310 K) | Ksv ([1]; 310 K) | n (number of binding sites) ([1]; 310 K) | fluorescence of HSA quenched by pesticide ([1]; 310 K) | ΔH^0 [1] | ΔS^0 [1] | Number of binding sites/n ([1]; modelling table) | α-helix contents ([2]; 5:1 (Pesticide:HSA)) | α-helix contents ([2]; 10:1 (Pesticide:HSA)) | other results
CNC(=O)O/N=C(\CS(C)(=O)=O)C(C)(C)C [Thiofanox-sulfone, thiofanox sulfone] | 55736.87796 and 53392.17364 | -4.3031 kcal/mol | 3.906 ± 0.043 10^12 M^−1s^−1 | 3.906 ± 0.043 10^4 M^−1 | 0.719 ± 0.011 | -4.9596 kcal/mol | 4.102 ± 0.034 10^12 M^−1s^−1 | 4.102 ± 0.034 10^4 M^−1 | 0.786 ± 0.008 | -5.6159 kcal/mol | 2.907 nm | 5.574 ± 0.138 10^12 M^−1s^−1 | 5.574 ± 0.138 10^4 M^−1 | 0.848 ± 0.004 | quenched | 23.451 kcal/mol | 392.314 J · mol^−1 · K^−1 | 0.8476 and 0.7456 | 51.076% | 50.482% | Ka (binding constant) ([1]; 296 K): (1.559 ± 0.162) × 10^3 M^−1; Ka (binding constant) ([1]; 303 K): (3.514 ± 0.247) × 10^3 M^−1; Ka (binding constant) ([1]; 310 K): (9.450 ± 0.597) × 10^3 M^−1; Toxicity [3]: Highly
CNC(=O)Oc1cc(C)cc(C(C)C)c1 [Promecarb, promecarb] | 58172.07681 | -3.5213 kcal/mol | 2.409 ± 0.154 10^12 M^−1s^−1 | 2.409 ± 0.154 10^4 M^−1 | 0.645 ± 0.004 | -4.316 kcal/mol | 3.705 ± 0.060 10^12 M^−1s^−1 | 3.705 ± 0.060 10^4 M^−1 | 0.704 ± 0.008 | -5.1107 kcal/mol | 2.316 nm | 5.817 ± 0.219 10^12 M^−1s^−1 | 5.817 ± 0.219 10^4 M^−1 | 0.769 ± 0.009 | quenched | 30.0872 kcal/mol | 475.061 J · mol^−1 · K^−1 | 0.7688 | 48.610% | 48.538% | ΔG(37°) ([1]; 37°, modelling table): −21.38; pKd ([1]; Ka (binding constant), 296 K): 2.61; pKd ([1]; Ka (binding constant), 303 K): 3.08; pKd ([1]; Ka (binding constant), 310 K): 3.62; Binding distance/r ([1]; modelling table): 2.316; LD50 [3]: 35 mg/kg; Toxicity [3]: Highly
CNC(=O)Oc1ccccc1C(C)C [Isoprocarb, isoprocarb] | 30154.52708 | -3.6472 kcal/mol | 2.175 ± 0.070 10^12 M^−1s^−1 | 2.175 ± 0.070 10^4 M^−1 | 0.669 ± 0.004 | -3.9873 kcal/mol | 2.758 ± 0.048 10^12 M^−1s^−1 | 2.758 ± 0.048 10^4 M^−1 | 0.689 ± 0.004 | -4.3274 kcal/mol | 2.338 nm | 3.015 ± 0.043 10^12 M^−1s^−1 | 3.015 ± 0.043 10^4 M^−1 | 0.712 ± 0.009 | quenched | 10.734 kcal/mol | 203.281 J · mol^−1 · K^−1 | 0.7116 | 50.878% | 49.242% | ΔG(37°) ([1]; 37°, modelling table): −18.11; pKd ([1]; Ka (binding constant), 296 K): 2.69; pKd ([1]; Ka (binding constant), 303 K): 2.89; pKd ([1]; Ka (binding constant), 310 K): 3.05; Binding distance/r ([1]; modelling table): 2.338; LD50 [3]: 450 mg/kg; Toxicity [3]: Moderately
CNC(=O)Oc1ccc(N(C)C)c(C)c1 [Aminocarb, aminocarb] | 39050.24214 | -3.7173 kcal/mol | 3.151 ± 0.089 10^12 M^−1s^−1 | 3.151 ± 0.089 10^4 M^−1 | 0.649 ± 0.005 | -4.0531 kcal/mol | 3.409 ± 0.059 10^12 M^−1s^−1 | 3.409 ± 0.059 10^4 M^−1 | 0.669 ± 0.006 | -4.3891 kcal/mol | 2.215 nm | 3.905 ± 0.179 10^12 M^−1s^−1 | 3.905 ± 0.179 10^4 M^−1 | 0.699 ± 0.003 | quenched | 10.487 kcal/mol | 200.780 J · mol^−1 · K^−1 | 0.6985 | 49.862% | 49.082% | ΔG(37°) ([1]; 37°, modelling table): −18.36; Kd ([1]; 37°, modelling table, read-out: Ka (37°) (converted)): 786 µM; pKd ([1]; 296 K, read-out: Ka (binding constant)): 2.75; pKd ([1]; 303 K, read-out: Ka (binding constant)): 2.90; pKd ([1]; 310 K, read-out: Ka (binding constant)): 3.10; Binding distance/r ([1]; modelling table): 2.215; LD50 [3]: 30 mg/kg; Toxicity [3]: Highly
Trimethacarb | 47778.50539 | -4.0289 kcal/mol | 3.043 ± 0.160 10^12 M^−1s^−1 | 3.043 ± 0.160 10^4 M^−1 | 0.694 ± 0.002 | -4.3162 kcal/mol | 4.204 ± 0.100 10^12 M^−1s^−1 | 4.204 ± 0.100 10^4 M^−1 | 0.696 ± 0.005 | -4.6037 kcal/mol | 2.954 nm | 4.778 ± 0.093 10^12 M^−1s^−1 | 4.778 ± 0.093 10^4 M^−1 | 0.713 ± 0.001 | quenched | 8.1233 kcal/mol | 171.775 J · mol^−1 · K^−1 | 0.713 | 52.233% | 48.283% | Ka (37°) ([1]; 37°, modelling table): 1782; ΔG(37°) ([1]; 37°, modelling table): −19.26; Ka (binding constant) ([1]; 296 K): (9.546 ± 0.118) × 10^2 M^−1; Ka (binding constant) ([1]; 303 K): (1.268 ± 0.092) × 10^3 M^−1; Ka (binding constant) ([1]; 310 K): (1.782 ± 0.036) × 10^3 M^−1; Binding distance/r ([1]; modelling table): 2.954; LD50 [3]: 178 mg/kg; Toxicity [3]: Moderately
